Reference: publication doi:10.1101/049825v1, “Htm1p-Pdi1p is a folding sensitive mannosidase that marks N-glycoproteins for ER-associated protein degradation” (biorxiv, 2016)

Target: T1, Htm1p-Pdi1p (Saccharomyces cerevisiae, UniProt P38888)
T1 construct: gene MNL1; full-length HTM1 coding region with C-terminal 3xFLAG-HDEL tag (released by TEV), chromosomal TDH3 promoter, strain yJW1820; co-purified with endogenous Pdi1p, near 1:1; with Protein disulfide-isomerase
T1 sequence (P38888 21-796): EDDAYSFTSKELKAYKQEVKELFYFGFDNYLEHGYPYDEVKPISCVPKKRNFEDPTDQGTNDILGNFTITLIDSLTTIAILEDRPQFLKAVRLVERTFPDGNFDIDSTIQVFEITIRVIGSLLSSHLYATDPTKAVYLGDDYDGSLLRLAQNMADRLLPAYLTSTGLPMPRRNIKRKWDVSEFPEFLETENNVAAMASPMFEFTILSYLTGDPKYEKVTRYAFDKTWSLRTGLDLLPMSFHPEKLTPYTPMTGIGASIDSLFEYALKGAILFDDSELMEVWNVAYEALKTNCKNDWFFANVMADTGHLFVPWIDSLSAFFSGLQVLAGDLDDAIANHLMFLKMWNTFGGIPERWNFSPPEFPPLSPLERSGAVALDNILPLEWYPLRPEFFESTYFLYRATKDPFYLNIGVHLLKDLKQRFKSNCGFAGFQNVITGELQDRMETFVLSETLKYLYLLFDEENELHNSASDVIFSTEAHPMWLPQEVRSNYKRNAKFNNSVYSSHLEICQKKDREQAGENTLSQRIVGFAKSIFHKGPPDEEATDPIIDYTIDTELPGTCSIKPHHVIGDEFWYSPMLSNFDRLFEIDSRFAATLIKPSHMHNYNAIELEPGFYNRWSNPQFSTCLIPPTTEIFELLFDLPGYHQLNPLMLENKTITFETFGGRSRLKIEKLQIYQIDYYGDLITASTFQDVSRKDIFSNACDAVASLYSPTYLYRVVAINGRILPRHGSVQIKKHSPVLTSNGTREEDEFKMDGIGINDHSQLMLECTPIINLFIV
T1 sequence (P17967 29-522 partner): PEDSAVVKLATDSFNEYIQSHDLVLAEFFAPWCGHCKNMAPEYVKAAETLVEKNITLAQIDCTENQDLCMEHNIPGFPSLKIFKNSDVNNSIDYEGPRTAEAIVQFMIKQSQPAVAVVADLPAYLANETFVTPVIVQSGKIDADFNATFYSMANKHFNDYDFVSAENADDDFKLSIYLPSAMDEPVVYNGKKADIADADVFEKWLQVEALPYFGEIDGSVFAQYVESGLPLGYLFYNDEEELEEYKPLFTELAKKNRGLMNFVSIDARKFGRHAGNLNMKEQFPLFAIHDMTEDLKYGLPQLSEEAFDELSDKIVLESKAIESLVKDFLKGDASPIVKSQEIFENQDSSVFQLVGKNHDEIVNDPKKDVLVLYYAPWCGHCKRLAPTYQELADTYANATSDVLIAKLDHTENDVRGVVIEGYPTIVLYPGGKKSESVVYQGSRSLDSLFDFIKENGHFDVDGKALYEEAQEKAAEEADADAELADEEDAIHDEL
Experiment: MALDI-TOF MS glycan profiling of CPY* (Man8 to Man7 conversion)
Type: biochemical
Conditions: glycoprotein substrate CPY* 2 μM, enzyme 0.1 μM, 2 mM CaCl2, pH 7.0, 30°C, 20 h; inhibitor concentration not given

In the case of `OC[C@H]1NC[C@@H](O)[C@@H](O)[C@@H]1O` [1-deoxymannojirimycin], the “MALDI-TOF MS glycan profiling of CPY* (Man8 to Man7 conversion)” value is reported as “Both chemicals inhibited the generation of Man7 on CPY*”.
